Reference: US7557100B2, “Antibacterial agents” (Pfizer Inc., priority 2005, dated 2009)
≈ marks a conversion by molar mass, not a printed value.

Experiments:
[1] = tested on: H. influenzae HI-3542; experiment: Microbroth dilution MIC testing against H. influenzae; type: cell-based; conditions: HI3542, H. influenzae 3542, Haemophilus Test Medium, 35° C., 16 to 24 hours, read-out: Minimum Inhibitory Concentration H. influenzae 3542
Method: (§1) In this example, the in vitro antibacterial activity of selected compounds was determined against S. aureus and H. influenzae. Except for clarifying or modifying statements, MIC testing followed procedures recommended by the NCCLS^1-2 or followed the descriptions cited below.
(§2) Bacterial Cultures At least the following organisms are included in the screen: Staphylococcus aureus SA-1 (UC-76) and H. influenzae HI-3542. Incubations were at 35° C. Stock bacterial cultures were maintained on Tryptic Soy Agar containing 5% Sheep Blood (BD, Becton Dickinson Microbiology Systems, Cockeysville, Md.), anaerobes were maintained on Anaerobic Blood Agar plates—CDC Formulation (BD), and fastidious organisms were maintained on Chocolate Agar II Plates (BD). Specific conditions of handling are listed below.
Haemophilus was maintained on Chocolate Agar II Plates at room temperature in a candle jar providing a 3 5% CO2 atmosphere.
(§3) Standardized Organism Inocula Frozen stock cultures were used as the initial source of organisms for performing microbroth dilution MIC testing. Stock cultures were passed on their standard growth medium for at least 1 growth cycle (18 24 hours) prior to their use.
(§4) Most bacteria, unless otherwise noted, were prepared directly from agar plates in 10 mL aliquots of the appropriate broth medium. Bacterial cultures were adjusted to the opacity of a 0.5 McFarland Standard (optical density value of 0.28-0.33 on a Perkin-Elmer Lambda EZ150 Spectrophotometer Wellesley, Mass., set at a wavelength of 600 nm).). The adjusted cultures were diluted 400 fold (0.25 mL inoculum+100 mL broth) in growth media to produce a starting suspension of approximately 5×10^5 colony forming units (CFU)/mL. Unless otherwise noted, bacterial strains were tested in cation adjusted Mueller Hinton Broth (CAMHB).
Haemophilus influenzae strains were grown on Chocolate Agar II Plates and tested in Haemophilus Test Medium (Remel, Lenexa, Kans.).
(§5) Test Compound (“Drug”) Preparation Compounds were solubilized in DMSO. Drug stock solutions were prepared on the day of testing. Drugs were weight corrected for assay content where necessary.
(§6) Drug Dilution Tray Preparation Microbroth dilution stock plates were prepared in two dilution series, 64 to 0.06 μg drug/mL and 0.25 to 0.00025 μg drug/mL. For the high concentration series, 200 μL of stock solution (2 mg/mL) was added to duplicate rows of a 96-well microtiter plate. This was used as the first well in the dilution series. Serial two-fold decremental dilutions were made using a BioMek FX robot (Beckman Coulter Inc., Fullerton, Calif.) with 10 of the remaining 11 wells, each of which contained 100 μL of the appropriate solvent/diluent. Row 12 contained solvent/diluent only and served as the control. For tube one of the low concentration series, 200 μL of an 8 μg/mL stock was added to duplicate rows of a 96-well plate. Serial two-fold dilutions were made as described above.
(§7) Daughter plates were spotted (3.2 μL/well) from the stock plates listed above using the BioMek FX robot and were either used immediately or frozen at −70° C. until use.
(§8) Plate Inoculation Aerobic organisms were inoculated (100 μL volumes) into the thawed plates using the BioMek FX robot. The inoculated plates were placed in stacks of no more than 5 and covered with an empty plate. These plates were incubated 16 to 24 hours in ambient atmosphere according to CLSI guidelines^2.
Reading the Test After inoculation and incubation, the degree of bacterial growth was estimated visually with the aid of a Test Reading Mirror (Dynex Technologies 220 16) in a darkened room with a single light shining directly through the top of the microbroth tray. The MIC was the lowest concentration of drug that prevented macroscopically visible growth under the conditions of the test. Testing was performed in duplicate. When the MIC values in duplicate tests varied by 1 well (2 fold), the lower values were reported. If the MICs varied by 2 dilutions, the middle value was reported. […]

[2] = tested on: Staphylococcus aureus SA-1 (UC-76); experiment: Microbroth dilution MIC testing against S. aureus; type: cell-based; conditions: S. aureus UC76, CAMHB, 35° C., 16 to 24 hours, read-out: Minimum Inhibitory Concentration S. aureus UC76
Method: as §1, §2, §3, §4, §5, §6, §7, §8
Reading the Test After inoculation and incubation, the degree of bacterial growth was estimated visually with the aid of a Test Reading Mirror (Dynex Technologies 220 16) in a darkened room with a single light shining directly through the top of the microbroth tray. The MIC was the lowest concentration of drug that prevented macroscopically visible growth under the conditions of the test. Testing was performed in duplicate. When the MIC values in duplicate tests varied by 1 well (2 fold), the lower values were reported. If the MICs varied by 2 dilutions, the middle value was reported. Greater than this 4 fold variance called for the test to be repeated, after which a similar determination was applied to all values.

Row | Compound | MIC [1] [µg/mL] | MIC [2] [µg/mL]
1 | C[C@H]1CN2c3c(cc(-c4cnccn4)c(F)c3F)CC3(C(=O)NC(=O)NC3=O)[C@@H]2[C@@H](C)O1 (relative stereo) [Compound 1, rel-(2S,4R,4aR)-9,10-difluoro-2,4-dimethyl-8-pyrazin-2-yl-1,2,4,4a-tetrahydro-2′H,6H-spiro[1,4-oxazino[4,3-a]quinoline-5,5′-pyrimidine]-2′,4′,6′(1′H,3′H)-trione] | 1 (≈ 2.26 µM) | –
2 | C[C@H]1CN2c3c(F)cc(-c4cnccn4)cc3CC3(C(=O)NC(=O)NC3=O)[C@@H]2[C@@H](C)O1 (relative stereo) [Compound 15, rel-(2S,4R,4aR)-10-fluoro-2,4-dimethyl-8-pyrazin-2-yl-1,2,4,4a-tetrahydro-2′H,6H-spiro[1,4-oxazino[4,3-a]quinoline-5,5′-pyrimidine]-2′,4′,6′(1′H,3′H)-trione] | 4 (≈ 9.4 µM) | 1 (≈ 2.35 µM)
3 | C[C@H]1CN2c3c(cc(-c4cnccn4)c(N4CCOCC4)c3F)CC3(C(=O)NC(=O)NC3=O)[C@@H]2[C@@H](C)O1 (relative stereo) [Compound 16, rel-(2S,4R,4aR)-10-fluoro-2,4-dimethyl-9-morpholin-4-yl-8-pyrazin-2-yl-1,2,4,4a-tetrahydro-2′H,6H-spiro[1,4-oxazino[4,3-a]quinoline-5,5′-pyrimidine]-2′,4′,6′(1′H,3′H)-trione] | > 64 | > 64
4 | COCCOc1c(-c2cnccn2)cc2c(c1F)N1C[C@H](C)O[C@H](C)[C@H]1C1(C2)C(=O)NC(=O)NC1=O (relative stereo) [Compound 17, rel-(2S,4R,4aR)-10-fluoro-9-(2-methoxyethoxy)-2,4-dimethyl-8-pyrazin-2-yl-1,2,4,4a-tetrahydro-2′H,6H-spiro[1,4-oxazino[4,3-a]quinoline-5,5′-pyrimidine]-2′,4′,6′(1′H,3′H)-trione] | > 64 | > 64
5 | C[C@H]1CN2c3c(cc(-c4cnccn4)c(OCCF)c3F)CC3(C(=O)NC(=O)NC3=O)[C@@H]2[C@@H](C)O1 (relative stereo) [Compound 18, rel-(2S,4R,4aR)-10-fluoro-9-(2-fluoroethoxy)-2,4-dimethyl-8-pyrazin-2-yl-1,2,4,4a-tetrahydro-2′H,6H-spiro[1,4-oxazino[4,3-a]quinoline-5,5′-pyrimidine]-2′,4′,6′(1′H,3′H)-trione] | > 64 | > 64
6 | C[C@H]1CN2c3cc(F)c(-c4cnccn4)cc3CC3(C(=O)NC(=O)NC3=O)[C@@H]2[C@@H](C)O1 (relative stereo) [Compound 19, rel-(2S,4R,4aR)-9-dluoro-2,4-dimethyl-8-pyrazin-2-yl-1,2,4,4a-tetrahydro-2′H,6H-spiro[1,4-oxazino[4,3-a]quinoline-5,5′-pyrimidine]-2′,4′,6′(1′H,3′H)-trione] | 2 (≈ 4.7 µM) | 2 (≈ 4.7 µM)
7 | C[C@H]1CN2c3ccc(-c4cnccn4)cc3CC3(C(=O)NC(=O)NC3=O)[C@@H]2[C@@H](C)O1 (relative stereo) [Compound 20, rel-(2S,4R,4aR)-2,4-dimethyl-8-pyrazin-2-yl-1,2,4,4a-tetrahydro-2′H,6H-spiro[1,4-oxazino[4,3-a]quinoline-5,5′-pyrimidine]-2′,4′,6′(1′H,3′H)-trione] | 2 (≈ 4.91 µM) | 4 (≈ 9.82 µM)
8 | COc1nccnc1-c1ccc2c(c1)CC1(C(=O)NC(=O)NC1=O)[C@@H]1[C@@H](C)O[C@@H](C)CN21 (relative stereo) [Compound 21, rel-(2S,4R,4aR)-8-(3-methoxypyrazin-2-yl)-2,4-dimethyl-1,2,4,4a-tetrahydro-2′H,6H-spiro[1,4-oxazino[4,3-a]quinoline-5,5′-pyrimidine]-2′,4′,6′(1′H,3′H)-trione] | 32 (≈ 73.2 µM) | 16 (≈ 36.6 µM)
9 | C[C@@H]1CN2c3c(cc(-c4cnccn4)c(F)c3F)CC3(C(=O)NC(=O)NC3=O)[C@H]2[C@H](C)O1 [Compound 2, (2R,4S,4aS)-9,10-difluoro-2,4-dimethyl-8-pyrazin-2-yl-1,2,4,4a-tetrahydro-2′H,6H-spiro[1,4-oxazino[4,3-a]quinoline-5,5′-pyrimidine]-2′,4′,6′(1′H,3′H)-trione] | 0.5 (≈ 1.13 µM) | 0.125 (≈ 0.282 µM)
10 | C[C@H]1CN2c3c(cc(-c4cnccn4)c(F)c3F)CC3(C(=O)NC(=O)NC3=O)[C@@H]2[C@@H](C)O1 [Compound 3, (2S,4R,4aR)-9,10-difluoro-2,4-dimethyl-8-pyrazin-2-yl-1,2,4,4a-tetrahydro-2′H,6H-spiro[1,4-oxazino[4,3-a]quinoline-5,5′-pyrimidine]-2′,4′,6′(1′H,3′H)-trione] | > 64 | –
11 | C[C@@H]1CN2c3c(cc(-c4cnccn4)c(F)c3F)CC3(C(=O)N(CN4CCOCC4)C(=O)N(CN4CCOCC4)C3=O)[C@H]2[C@H](C)O1 [Compound 4, (2R,4S,4aS)-9,10-difluoro-2,4-dimethyl-1′,3′-bis(morpholin-4-ylmethyl)-8-pyrazin-2-yl-1,2,4,4a-tetrahydro-2′H,6H-spiro[1,4-oxazino[4,3-a]quinoline-5,5′-pyrimidine]-2′,4′,6′(1′H,3′H)-trione] | 0.5 (≈ 0.779 µM) | 0.25 (≈ 0.39 µM)
12 | C[C@@H]1CN2c3c(cc(-c4cnccn4)c(F)c3F)CC3(C(=O)N(CN4CCN(C)CC4)C(=O)N(CN4CCN(C)CC4)C3=O)[C@H]2[C@H](C)O1 [Compound 5, (2R,4S,4aS)-9,10-difluoro-2,4-dimethyl-1′,3′-bis[(4-methylpiperazin-1-yl)methyl]-8-pyrazin-2-yl-1,2,4,4a-tetrahydro-2′H,6H-spiro[1,4-oxazino[4,3-a]quinoline-5,5′-pyrimidine]-2′,4′,6′(1′H,3′H)-trione] | 1 (≈ 1.5 µM) | 0.5 (≈ 0.749 µM)
13 | C[C@@H]1CN2c3c(cc(-c4c[n+]([O-])ccn4)c(F)c3F)CC3(C(=O)NC(=O)NC3=O)[C@H]2[C@H](C)O1 [Compound 6, (2R,4S,4aS)-9,10-difluoro-2,4-dimethyl-8-(4-oxidopyrazinpyrazin-2-yl)-1,2,4,4a-tetrahydro-2′H,6H-spiro[1,4-oxazino[4,3-a]quinoline-5,5′-pyrimidine]-2′,4′,6′(1′H,3′H)-trione] | 0.25 (≈ 0.544 µM) | 0.5 (≈ 1.09 µM)
14 | C[C@@H]1CN2c3c(cc(-c4cnc(N)cn4)c(F)c3F)CC3(C(=O)NC(=O)NC3=O)[C@H]2[C@H](C)O1 [Compound 22, (2R,4S,4aS)-8-(5-aminopyrazin-2-yl)-9,10-difluoro-2,4-dimethyl-1,2,4,4a-tetrahydro-2′H,6H-spiro[1,4-oxazino[4,3-a]quinoline-5,5′-pyrimidine]-2′,4′,6′(1′H,3′H)-trione] | 0.5 (≈ 1.09 µM) | 0.5 (≈ 1.09 µM)
15 | Cc1cnc(-c2cc3c(c(F)c2F)N2C[C@@H](C)O[C@@H](C)[C@@H]2C2(C3)C(=O)NC(=O)NC2=O)cn1 [Compound 23, (2R,4S,4aS)-9,10-difluoro-2,4-dimethyl-8-(5-methylpyrazin-2-yl)-1,2,4,4a-tetrahydro-2′H,6H-spiro[1,4-oxazino[4,3-a]quinoline-5,5′-pyrimidine]-2′,4′,6′(1′H,3′H)-trione] | 1 (≈ 2.19 µM) | 0.125 (≈ 0.273 µM)
